Assay [1] is described as follows: Gap detection performance (gap-induced suppression of acoustic startle) in mice. It counts as in vivo, mouse. The conditions noted are these: 7 mice, FIG. 14B, 30 min after drug administration. The procedure: (§1) Adult CBA/CaJ mice were used for the study. […] Injection was performed remotely via an intravenous catheter inserted into the tail vein. Spontaneous firing rates of IC neurons were measured and compared before, during, and after of drug injection. To test whether this drug is affecting general sound processing in the auditory system of mice, the acoustic startle reflex and gap detection performance were also assessed.
(§2) The animals used were CBA/CaJ male mice, 8 months to 1.5 years old. Extracellular recording was carried out using Quartz micropipettes filled with 1M potassium acetate solution, 10-20 M ohms. Local field potential (LFP) was evaluated using a chronically implanted 4 channel multi-electrode array chronically implanted into IC in a freely moving animal via wireless recording system. For drug administration, the Group II mGluR agonist was administered via intravenous (3.5 mg/kg) or intraperitoneal (5 mg/kg) injections while recording neural activity. To evaluate startle input/output function, startle intensities were randomized within the range from 70 dB to 120 dB SPL. Startle was a broad band noise 20 ms duration. Inter-trial intervals were pseudo randomized between 15 and 25 sec. For gap detection, two trials were carried out. […]

A further assay relates to IC neurons. The assay is described as follows: Extracellular recording of neuronal firing in the inferior colliculus of awake mice before, during and after systemic drug injection. Format: in vivo, mouse. The procedure: as §1
(§3) The animals used were CBA/CaJ male mice, 8 months to 1.5 years old. Extracellular recording was carried out using Quartz micropipettes filled with 1M potassium acetate solution, 10-20 M ohms. Local field potential (LFP) was evaluated using a chronically implanted 4 channel multi-electrode array chronically implanted into IC in a freely moving animal via wireless recording system. For drug administration, the Group II mGluR agonist was administered via intravenous (3.5 mg/kg) or intraperitoneal (5 mg/kg) injections while recording neural activity. To evaluate startle input/output function, startle intensities were randomized within the range from 70 dB to 120 dB SPL. Startle was a broad band noise 20 ms duration. Inter-trial intervals were pseudo randomized between 15 and 25 sec. For gap detection, two trials were carried out. Trial I—The acoustic startle (110 dB SPL, 20 ms duration, wideband noise) imbedded in continuous background noise (65 dB SPL, third octave, centered at 10, 12.5, 16, 20, 25, and 31.5 kHz). Trial II—Trial I paired with a 20 ms gap embedded into background noise and presented 100 ms before the startle. Inter-trial intervals were pseudo randomized between 10 and 17 sec.

Assay [2] has as its system inferior colliculus (auditory midbrain). The assay is described as follows: Local field potentials (sound evoked activity) recorded in the IC of awake mice. It counts as in vivo, mouse. The settings on record: systemic administration, FIG. 13. How it is done:
FIG. 13 provides graphs showing that a group II mGluR agonist enhances of sound evoked activity in the IC. Local field potentials (LFPs) recorded in the IC of awake mice in response to 30 ms wideband noise (1-100 kHz, 80 dB SPL) recorded before, 30 min and 90 min after drug administration. LFPs shown here were generated based on 130 repetitions. SEMs are shown by grey
as §3, with “Trial II—Trial I paired with a 20 ms gap embedded into background noise and presented 100 ms before the startle. Inter-trial intervals were pseudo randomized between 10 and 17 sec.” left out

Assay [3] is described as follows: Gap detection performance for behavioral assessment of tinnitus in the tinnitus mouse model. It counts as in vivo. The settings on record: one mouse, FIG. 17. The procedure:
Mice were assessed for tinnitus 3 months after exposure. The ability of mice to detect a gap of silence preceding the startle stimulus was determined using commercial hardware/software equipment from Kinder Scientific, Inc. Mice were placed in a small restrainer situated on a plate with a pressure sensor. Any animal motion was detected by the sensor which measured its amplitude and stored data on the computer hard drive. Kinder Scientific software was used to generate a sequence of stimulus trials including a startle stimulus presented alone (STARTLE) and a startle stimulus paired with a gap (GAP+STARTLE) embedded into continuous background noise. The background consisted of narrow-band (1/3 octave) noise centered at six different frequencies (10, 12.5, 16, 20, 25, and 31.5 kHz). […]
Therefore, the data in each session were statistically analyzed to remove outliers (Grubbs' test for outliers). […] To calculate the GAP+STARTLE/STARTLE ratio we calculated the mean for all STARTLE values. […]
The presence of tinnitus in each mouse is assessed by pre-pulse inhibition of the acoustic startle reflex using the procedure developed by Turner et al. Turner et al., Behav Neurosci 120:188-195 (2006). […] The inventor measured the ratio of the startle response amplitude when preceded by a gap of silence over the startle response amplitude without preceded gap. […]

Assay [4] can be described thus: Acoustic startle reflex (startle input/output function). It counts as in vivo, mouse. The settings on record: in 6 out of 7 mice tested, FIG. 14A, 30 min after drug administration. The procedure: as §1, §2

For the compound `N[C@@]1(C(=O)O)CC[C@H]2[C@H](C(=O)O)[C@H]21` [LY354740, (1S,2S,5R,6S)-2-Aminobicyclo[3.1.0]hexane-2,6-dicarboxylic acid], the “effect on gap detection performance” value in assay [1] is “not affected”. Moreover, in the assay on IC neurons (injected IV), the “duration of suppression of spontaneous activity” value is reported as “several tens of minutes” and the “time after injection to suppression of spontaneous activity” value is on record as “Several seconds”. Also, the “effect on spontaneous activity in IC neurons” value in the assay with IC neurons (injected IV, vast majority of IC neurons, awake mice) is listed as “near complete suppression”. Moreover, in the assay on IC neurons (single IC neuron, FIG. 12), the “time after systemic drug administration at which background firing was suppressed” value is on record as “About 5 min” and the “time until rate of background activity almost recovered to pre-drug level” value is reported as “about 2 hours”. Moreover, in the assay on IC neurons (single IC neuron, FIG. 12, systemic administration), the “effect on sound-evoked firing” value is on record as “unaffected”. Moreover, the “effect on spontaneous activity in auditory neurons” value with IC neurons (systemic activation of group II mGluRs, FIG. 10, 15) is recorded as “dramatically suppressed”. In addition, in assay [2], the “effect on sound evoked activity” value is listed as “did not change or slightly increased”. In addition, the “gap detection performance after systemic injection” value in assay [3] was “improvement of gap detection in this mouse to the control level”. Moreover, the “increase of magnitude of startle responses” value in assay [4] is “at least 20%”.

Source of the values: patent publication US11938106B2, “Treatment of tinnitus using glutamate receptor agonists” (Northeast Ohio Medical University, priority 2016, dated 2024).
